Assay results reported in US20020137929A1, “1 - (3-heterocyclylphenyl) isothiourea, -isourea, -guanidine and -amidine herbicidal agents” (Intellectual Property Department, BASF Aktiengesellschaft, priority 1998, published 2002).

How the values were obtained:
CASOB (Sicklepod) = experiment: Postemergence herbicidal evaluation; format: in vivo, Cassia obtusifolia; settings: postemergence
Summary of the method: (§1)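 Visual 0-9 injury score (stand, vigor, malformation, size, chlorosis, appearance vs untreated) taken four to five weeks post-spray, averaged across repeat tests. Test plants about two weeks old; foliar spray of acetone/water (1:1) with 0.5% surfactant delivering ~0.0156-0.500 kg active/ha.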

CYPSE (Flatsedge) = experiment: Preemergence weed control under flooded paddy conditions; format: in vivo, Cyperus serotinus; settings: rated 3-4 weeks after treatment
Summary of the method: (§2)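 Values are visual 0-9 scores against a control for a preemergence application into paddy flood water at about 0.0313 to 0.500 kg/ha. Greenhouse duration was three to four weeks.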

ORYSAT (Rice, Tebonnet) [1] = experiment: Postemergence herbicidal evaluation; format: in vivo, Oryza sativa, (L.) Tebonnet; settings: postemergence
Summary of the method: as §1

MOOVA (Monochoria) = experiment: Preemergence weed control under flooded paddy conditions; format: in vivo, Monochoria vaginalis; settings: rated 3-4 weeks after treatment
Summary of the method: as §2

GALAP (Galium) = experiment: Postemergence herbicidal evaluation; format: in vivo, Galium aparine; settings: postemergence
Summary of the method: as §1

AMBEL (Ragweed, Common) = experiment: Preemergence herbicidal evaluation; format: in vivo, Ambrosia artemisifolia; settings: rated 4-5 weeks after treatment
Summary of the method: (§3)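 Test compound, dissolved in aqueous acetone, was sprayed over planted soil cups at an equivalent of about 0.0156 to 0.500 kg/ha; seeds had been mixed with potting soil. Greenhouse growth followed, with visual 0-9 scoring of injury at four to five weeks.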

[2] = test system: CHEAL (Lambsquarters, Common); experiment: Postemergence herbicidal evaluation; format: in vivo, Chenopodium album; settings: postemergence
Summary of the method: as §1

[3] = test system: GLXMAW (Soybean, Williams); experiment: Preemergence herbicidal evaluation; format: in vivo, Glycine max, (L.) Merr. cv Williams; settings: rated 4-5 weeks after treatment
Summary of the method: as §3

ZEAMX (Corn, Field) = experiment: Postemergence herbicidal evaluation; format: in vivo, Zea mays; settings: postemergence
Summary of the method: as §1

SETVI (Foxtail, Green) = experiment: Preemergence herbicidal evaluation; format: in vivo, Setaria viridis; settings: rated 4-5 weeks after treatment
Summary of the method: as §3

ORYSAT (Rice, Tebonnet) [4] = experiment: Preemergence herbicidal evaluation; format: in vivo, Oryza sativa, (L.) Tebonnet; settings: rated 4-5 weeks after treatment
Summary of the method: as §3

C=CCN1C(=O)C(CC(=O)NO)SC1=Nc1cc(-n2c(=O)cc(C(F)(F)F)n(C)c2=O)c(F)cc1Cl (stereo not shown) [Compound 161, 3-Allyl-2-{{2-chloro-5-[3,6-dihydro-3-methyl-2,6-dioxo-4-(trifluoromethyl)-1(2H)-pyrimidinyl]-4-fluorophenyl}imino}-4-oxo-5-thiazolidineacetohydroxamic acid]
herbicidal rating CASOB (CASOB (Sicklepod); rate 0.0156 kg/ha): 0.0
herbicidal rating CASOB (CASOB (Sicklepod); rate 0.0313 kg/ha): 1.0
herbicidal rating CASOB (CASOB (Sicklepod); rate 0.0625 kg/ha): 1.0
herbicidal rating CASOB (CASOB (Sicklepod); rate 0.1250 kg/ha): 3.0
herbicidal effect rating, CYPSE (CYPSE (Flatsedge); 0.0313 kg/ha): 0.0
herbicidal effect rating, CYPSE (CYPSE (Flatsedge); 0.0625 kg/ha): 0.0
herbicidal effect rating, CYPSE (CYPSE (Flatsedge); 0.1250 kg/ha): 0.0
herbicidal effect rating, CYPSE (CYPSE (Flatsedge); 0.2500 kg/ha): 3.0
herbicidal rating ORYSAT (ORYSAT (Rice, Tebonnet) [1]; rate 0.0156 kg/ha): 2.5
herbicidal rating ORYSAT (ORYSAT (Rice, Tebonnet) [1]; rate 0.0313 kg/ha): 3.0
herbicidal rating ORYSAT (ORYSAT (Rice, Tebonnet) [1]; rate 0.0625 kg/ha): 3.5
herbicidal rating ORYSAT (ORYSAT (Rice, Tebonnet) [1]; rate 0.1250 kg/ha): 3.5
herbicidal effect rating, MOOVA (MOOVA (Monochoria); 0.0313 kg/ha): 7.0
herbicidal effect rating, MOOVA (MOOVA (Monochoria); 0.0625 kg/ha): 7.0
herbicidal effect rating, MOOVA (MOOVA (Monochoria); 0.1250 kg/ha): 7.0
herbicidal effect rating, MOOVA (MOOVA (Monochoria); 0.2500 kg/ha): 9.0
herbicidal rating GALAP (GALAP (Galium); rate 0.0156 kg/ha): 0.0
herbicidal rating GALAP (GALAP (Galium); rate 0.0313 kg/ha): 1.0
herbicidal rating GALAP (GALAP (Galium); rate 0.0625 kg/ha): 2.0
herbicidal rating GALAP (GALAP (Galium); rate 0.1250 kg/ha): 4.0
Preemergence herbicidal rating AMBEL (AMBEL (Ragweed, Common); 0.0156 kg/ha): 0.0
Preemergence herbicidal rating AMBEL (AMBEL (Ragweed, Common); 0.0313 kg/ha): 3.0
Preemergence herbicidal rating AMBEL (AMBEL (Ragweed, Common); 0.0625 kg/ha): 5.0
Preemergence herbicidal rating AMBEL (AMBEL (Ragweed, Common); 0.1250 kg/ha): 9.0
Preemergence herbicidal rating AMBEL (AMBEL (Ragweed, Common); 0.2500 kg/ha): 9.0
Preemergence herbicidal rating AMBEL (AMBEL (Ragweed, Common); 0.5000 kg/ha): 9.0
herbicidal rating CHEAL ([2]; rate 0.0156 kg/ha): 1.0
herbicidal rating CHEAL ([2]; rate 0.0313 kg/ha): 5.0
herbicidal rating CHEAL ([2]; rate 0.0625 kg/ha): 7.0
herbicidal rating CHEAL ([2]; rate 0.1250 kg/ha): 9.0
Preemergence herbicidal rating GLXMAW ([3]; 0.0156 kg/ha): 0.0
Preemergence herbicidal rating GLXMAW ([3]; 0.0313 kg/ha): 1.0
Preemergence herbicidal rating GLXMAW ([3]; 0.0625 kg/ha): 1.0
Preemergence herbicidal rating GLXMAW ([3]; 0.1250 kg/ha): 7.0
Preemergence herbicidal rating GLXMAW ([3]; 0.2500 kg/ha): 9.0
Preemergence herbicidal rating GLXMAW ([3]; 0.5000 kg/ha): 9.0
herbicidal rating ZEAMX (ZEAMX (Corn, Field); rate 0.0156 kg/ha): 4.5
herbicidal rating ZEAMX (ZEAMX (Corn, Field); rate 0.0313 kg/ha): 6.5
herbicidal rating ZEAMX (ZEAMX (Corn, Field); rate 0.0625 kg/ha): 7.0
herbicidal rating ZEAMX (ZEAMX (Corn, Field); rate 0.1250 kg/ha): 7.5
Preemergence herbicidal rating SETVI (SETVI (Foxtail, Green); 0.0156 kg/ha): 0.0
Preemergence herbicidal rating SETVI (SETVI (Foxtail, Green); 0.0313 kg/ha): 0.0
Preemergence herbicidal rating SETVI (SETVI (Foxtail, Green); 0.0625 kg/ha): 7.0
Preemergence herbicidal rating SETVI (SETVI (Foxtail, Green); 0.1250 kg/ha): 9.0
Preemergence herbicidal rating SETVI (SETVI (Foxtail, Green); 0.2500 kg/ha): 9.0
Preemergence herbicidal rating SETVI (SETVI (Foxtail, Green); 0.5000 kg/ha): 9.0
Preemergence herbicidal rating ORYSAT (ORYSAT (Rice, Tebonnet) [4]; 0.0156 kg/ha): 0.0
Preemergence herbicidal rating ORYSAT (ORYSAT (Rice, Tebonnet) [4]; 0.0313 kg/ha): 1.0
Preemergence herbicidal rating ORYSAT (ORYSAT (Rice, Tebonnet) [4]; 0.0625 kg/ha): 7.0
Preemergence herbicidal rating ORYSAT (ORYSAT (Rice, Tebonnet) [4]; 0.1250 kg/ha): 7.0
Preemergence herbicidal rating ORYSAT (ORYSAT (Rice, Tebonnet) [4]; 0.2500 kg/ha): 9.0
Preemergence herbicidal rating ORYSAT (ORYSAT (Rice, Tebonnet) [4]; 0.5000 kg/ha): 9.0
